For assay [1], the system named is HeLa. Kind of assay: Proliferation assay (crystal violet), HeLa. It is filed as cell-based. As to conditions: HeLa cells, 4 days incubation, crystal violet staining, read-out: IC50 inhibition of proliferation, HeLa. In outline:
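Tumor cells seeded at 1000–5000 cells/well in medium with 10% FCS; after 24 h, compounds added at 0.001–10 μM (0.5% DMSO) for 4 days. Cells fixed with glutaraldehyde, stained with crystal violet, dye dissolved in acetic acid and read at 595 nm. IC50 from 4-parameter fit, normalized to zero-point plate and untreated cells.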

The target of assay [2] is T1, catalytic domain of human Bub1 (amino acids 704-1085) (Homo sapiens, UniProt O43683).
T1 construct: catalytic domain of human Bub1 (amino acids 704-1085); His6 (N); made in house; host or cells: insect cells (Hi5)
T1 sequence (O43683 704-1085): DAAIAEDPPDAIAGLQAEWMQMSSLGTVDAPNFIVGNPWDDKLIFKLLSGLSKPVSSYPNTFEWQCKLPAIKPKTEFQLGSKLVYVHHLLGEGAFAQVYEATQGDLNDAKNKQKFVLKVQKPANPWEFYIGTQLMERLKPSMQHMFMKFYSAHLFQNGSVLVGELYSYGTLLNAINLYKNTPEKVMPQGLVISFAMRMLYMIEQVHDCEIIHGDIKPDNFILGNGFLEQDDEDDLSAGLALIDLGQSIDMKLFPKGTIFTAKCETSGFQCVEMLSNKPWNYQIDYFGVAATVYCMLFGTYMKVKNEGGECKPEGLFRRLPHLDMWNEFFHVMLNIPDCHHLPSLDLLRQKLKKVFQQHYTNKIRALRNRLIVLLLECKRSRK
Kind of assay: Bub1 kinase assay (TR-FRET). It is filed as biochemical. The following applies: 10 μM ATP, avg, read-out: Bub1 avg (IC50 [mol/l]). In outline: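 Readout is the 665/620 nm TR-FRET ratio from anti-phosphoserine antibody, Eu-labelled anti-mouse IgG and streptavidin-XL665, scaled between no-enzyme and uninhibited controls. Reaction: 1 μM biotinylated peptide, 10 μM ATP, 60 min, 22 °C, after 15 min compound preincubation with His6-Bub1 (704-1085, insect-expressed, ~200 ng/ml).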

Structures are written as SMILES. Read-outs that look alike come from different tables or passages of the source.

As for `Cc1nsc(Nc2cnc3ccccc3n2)c1C(=O)Nc1cccc(C(=O)N[C@@H](CCC(N)=O)C(=O)OC(C)(C)C)c1` [Example 56, tert-butyl N^2-[3-({[3-methyl-5-(quinoxalin-2-ylamino)-1,2-thiazol-4-yl]carbonyl}amino)-benzoyl]glutaminate], the IC50 in assay [1] (Homo sapiens, HeLa, 96 h) is 9.8 µM; in assay [2] it was at least 20 µM.

For `Cc1nsc(Nc2cnc3ccccc3n2)c1C(=O)Nc1cccc(C(=O)N[C@H](C(=O)OC(C)(C)C)[C@@H](C)OC(C)(C)C)c1` [Example 57, tert-Butyl O-tert-butyl-N-[3-({[3-methyl-5-(quinoxalin-2-ylamino)-1,2-thiazol-4 yl]carbonyl}amino)-benzoyl]threoninate], the IC50 in assay [1] (Homo sapiens, HeLa, 96 h) was 10 µM; in assay [2] it was at least 20 µM.

As for `Cc1nsc(Nc2cnc(C(F)(F)F)cn2)c1C(=O)Nc1ccc(F)c(OCC2CCN(CC(F)(F)F)C2)c1` (centres unmarked) [Example 318, N-(4-fluoro-3-{[1-(2,2,2-trifluoroethyl)pyrrolidin-3-yl]methoxy}phenyl)-3-methyl-5-{[5-(trifluoromethyl)pyrazin-2-yl]amino}-1,2-thiazole-4-carboxamide], the IC50 is 0.41 µM in assay [1]; 0.22 µM in assay [1] (Homo sapiens, HeLa, 96 h); above 20 µM in assay [2].

Consider `Cc1nsc(Nc2cnc(C(F)(F)F)cn2)c1C(=O)Nc1ccc(OC[C@H]2CCCN(CCC(F)(F)F)C2)nc1` [Example 378, 3-methyl-5-{[5-(trifluoromethyl)pyrazin-2-yl]amino}-N-(6-{[(3S)-1-(3,3,3-trifluoropropyl)piperidin-3-yl]methoxy}pyridin-3-yl)-1,2-thiazole-4-carboxamide], for which the IC50 in assay [1] (Homo sapiens, HeLa, 96 h) was 0.29 µM; in assay [2], at least 20 µM.

Take `CCCN1CCC(COc2ccc(NC(=O)c3c(C)nsc3Nc3cnc(C(F)(F)F)cn3)cn2)C(F)(F)C1` (centres unmarked) [Example 394, N-{6-[(3,3-difluoro-1-propylpiperidin-4-yl)methoxy]pyridin-3-yl}-3-methyl-5-{[5-(trifluoromethyl)pyrazin-2-yl]amino}-1,2-thiazole-4-carboxamide]: the IC50 is 0.38 µM in assay [1] (Homo sapiens, HeLa, 96 h) and above 20 µM in assay [2].

Take `Cc1nsc(Nc2cnc(C(F)(F)F)cn2)c1C(=O)Nc1ccc(F)c(OC[C@H]2CCCN(CC(F)F)C2)c1` [Example 400, N-(3-{[(3S)-1-(2,2-difluoroethyl)piperidin-3-yl]methoxy}-4-fluorophenyl)-3-methyl-5-{[5-(trifluoromethyl)pyrazin-2-yl]amino}-1,2-thiazole-4-carboxamide]: the IC50 was 0.77 µM in assay [1] (Homo sapiens, HeLa, 96 h) and above 20 µM in assay [2].

`Cc1nsc(Nc2cnc(C(F)(F)F)cn2)c1C(=O)Nc1ccc(OCC2CCN(CC(F)F)CC2(F)F)nc1` (centres unmarked) [Example 401, N-(6-{[1-(2,2-difluoroethyl)-3,3-difluoropiperidin-4-yl]methoxy}pyridin-3-yl)-3-methyl-5-{[5-(trifluoromethyl)pyrazin-2-yl]amino}-1,2-thiazole-4-carboxamide]: the IC50 in assay [1] (Homo sapiens, HeLa, 96 h) was 0.43 µM; in assay [2] it was above 20 µM.

As for `Cc1nsc(Nc2cnc(C(F)(F)F)cn2)c1C(=O)Nc1ccc(OCC2CCN(CCC(F)(F)F)CC2(F)F)nc1` (centres unmarked) [Example 402, N-(6-{[3,3-difluoro-1-(3,3,3-trifluoropropyl)piperidin-4-yl]methoxy}pyridin-3-yl)-3-methyl-5-{[5-(trifluoromethyl)pyrazin-2-yl]amino}-1,2-thiazole-4-carboxamide], the IC50 in assay [1] (Homo sapiens, HeLa, 96 h) is 0.34 µM; in assay [2] it was above 20 µM.

Turning to `Cc1nsc(Nc2cnc(C(F)(F)F)cn2)c1C(=O)Nc1ccc(F)c(OC[C@@H]2CCN(CC(F)F)C2)c1` [Example 403, N-(3-{[(3R)-1-(2,2-difluoroethyl)pyrrolidin-3-yl]methoxy}-4-fluorophenyl)-3-methyl-5-{[5-(trifluoromethyl)pyrazin-2-yl]amino}-1,2-thiazole-4-carboxamide], the IC50 in assay [1] (Homo sapiens, HeLa, 96 h) is 0.45 µM; in assay [2], above 20 µM.

Turning to `Cc1nsc(Nc2cnc(C(F)(F)F)cn2)c1C(=O)Nc1ccc(OC[C@H]2CCN(CC(F)(F)F)C2)nc1` [Example 404, 3-Methyl-N-(6-{[(3S)-1-(2,2,2-trifluoroethyl)pyrrolidin-3-yl]methoxy}pyridin-3-yl)-5-{[5-(trifluoromethyl)pyrazin-2-yl]amino}-1,2-thiazole-4-carboxamide], the IC50 in assay [1] (Homo sapiens, HeLa, 96 h) was 0.25 µM; in assay [2], above 20 µM.

`Cc1nsc(Nc2ccc(C#N)cn2)c1C(=O)Nc1ccc(OC[C@H]2CCN(CC(F)(F)F)C2)nc1` [Example 405, 5-[(5-Cyanopyridin-2-yl)amino]-3-methyl-N-(6-{[(35)-1-(2,2,2-trifluoroethyl)pyrrolidin-3-yl]methoxy}pyridin-3-yl)-1,2-thiazole-4-carboxamide]: the IC50 was 0.44 µM in assay [1] (Homo sapiens, HeLa, 96 h) and above 20 µM in assay [2].

In the case of `CCN1CCC(Oc2ccc(NC(=O)c3c(C)nsc3Nc3cnc(C(F)(F)F)cn3)cn2)C(F)(F)C1` (centres unmarked) [Example 406, N-{6-[(1-Ethyl-3,3-difluoropiperidin-4-yl)oxy]pyridin-3-yl}-3-methyl-5-{[5-(trifluoromethyl)pyrazin-2-yl]amino}-1,2-thiazole-4-carboxamide], the IC50 in assay [1] (Homo sapiens, HeLa, 96 h) is 0.16 µM; in assay [2] it was above 20 µM.

Take `Cc1nsc(Nc2cnc(C(F)(F)F)cn2)c1C(=O)Nc1ccc(OCCN2CCC(F)(F)CC2)nc1` [Example 407, N-{6-[2-(4,4-Difluoropiperidin-1-yl)ethoxy]pyridin-3-yl}-3-methyl-5-{[5-(trifluoromethyl)pyrazin-2-yl]amino}-1,2-thiazole-4-carboxamide]: the IC50 was 0.33 µM in assay [1] (Homo sapiens, HeLa, 96 h) and above 20 µM in assay [2].

For the compound `CCCN1C[C@H](F)[C@H](Oc2ccc(NC(=O)c3c(C)nsc3Nc3cnc(C(F)(F)F)cn3)cn2)C1` [Example 408, N-(6-{[(3R,4S)-4-Fluoro-1-propylpyrrolidin-3-yl]oxy}pyridin-3-yl)-3-methyl-5-{[5-(trifluoromethyl)pyrazin-2-yl]amino}-1,2-thiazole-4-carboxamide], the IC50 in assay [1] (Homo sapiens, HeLa, 96 h) was 0.26 µM; in assay [2], above 20 µM.

As for `Cc1nsc(Nc2cnc(C(F)(F)F)cn2)c1C(=O)Nc1ccc(O[C@@H]2CN(CCC(F)(F)F)C[C@@H]2F)nc1` [Example 409, N-(6-{[(3R,4S)-4-Fluoro-1-(3,3,3-trifluoropropyl)pyrrolidin-3-yl]oxy}pyridin-3-yl)-3-methyl-5-{[5-(trifluoromethyl)pyrazin-2-yl]amino}-1,2-thiazole-4-carboxamide], the IC50 in assay [1] (Homo sapiens, HeLa, 96 h) was 0.19 µM; in assay [2] it was above 20 µM.

Regarding `Cc1nsc(Nc2cnc(C(F)(F)F)cn2)c1C(=O)Nc1ccc(O[C@@H]2CN(CC(F)(F)F)C[C@@H]2F)nc1` [Example 410, N-(6-{[(3R,4S)-4-Fluoro-1-(2,2,2-trifluoroethyl)pyrrolidin-3-yl]oxy}pyridin-3-yl)-3-methyl-5-{[5-(trifluoromethyl)pyrazin-2-yl]amino}-1,2-thiazole-4-carboxamide], the IC50 in assay [1] (Homo sapiens, HeLa, 96 h) was 0.17 µM; in assay [2] it was above 20 µM.

As for `Cc1nsc(Nc2cnc(C(F)(F)F)cn2)c1C(=O)Nc1ccc(O[C@@H]2CN(CC(F)F)C[C@@H]2F)nc1` [Example 411, N-(6-{[(3R,4S)-1-(2,2-Difluoroethyl)-4-fluoropyrrolidin-3-yl]oxy}pyridin-3-yl)-3-methyl-5-{[5-(trifluoromethyl)pyrazin-2-yl]amino}-1,2-thiazole-4-carboxamide], the IC50 was 0.17 µM in assay [1] (Homo sapiens, HeLa, 96 h) and above 20 µM in assay [2].

Source of the values: patent publication US20170334899A1, “AMINO-SUBSTITUTED ISOTHIAZOLES” (Bayer Pharma Aktiengesellschaft, priority 2014, published 2017).
